For assay [1], the system named is Bovine Uteral Progesterone Receptors. The experiment in a line: Inhibition of 3H-progesterone binding, uterus cytosol. As to conditions: competitor 10^-6M; 3H-progesterone 0.15 nM. How it is done:
The data presented were obtained by performing assays in accordance with the procedures described in et al. 1988 previously to determine the effect of progesterone metabolites and their derivatives and the progestin R5020 on the binding of [^3H]R5020 to the progesterone receptor in rat uterus (Gee et al. 1988).
^3H-progesterone (0.15 nM) was incubated with the rat uterus cytosol in the presence of the test compounds. The specific binding were determined after incubation and compared to the control incubation without the compounds. The data are expressed as percent inhibition of binding.
In Table 3, rats were adrenalectomized 3 days prior to sacrifice. To isolate the mineralocorticoid receptor, brain cytosol fractions were prepared as describe in Gee, et al. 1988. The drugs were incubated with 3 nM of ^3H-aldosterone (the specific ligand for the mineralocorticoid receptor) in the presence of the selective type II agonist RU28362 (0.5 µM) which blocks ^3H-aldosterone binding to the type II (glucocorticoid) receptors. Table 2. Inhibition of 3H-Progesterone Binding to the Bovine Uteral Progesterone Receptors

Assay [2] concerns N.I.H. Swiss-Webster mice. The experiment in a line: Elevated plus-maze. Type of assay: in vivo. As to conditions: for response vs control in vivo at 10 mg/kg: Mus musculus, ip, read-out: % Control. The text has this: The theoretical basis for the elevated plus-maze test is similar to that of the light/dark transition test. […] The apparatus consists of two open-arms and two enclosed-arms. The elevated plus-maze test allows for two measures of anxiety, the number of entries into the open-arms and the time spent on the open-arms, both expressed as a percentage of the total number of entries and time spent in/on both the open-arms and enclosed-arms.
Male N.LH. Swiss-Webster mice (Harlan, Indianapolis, IN) weighing 15-20 g were housed four per cage in polyethylene cages with sawdust bedding. The colony mom was environmentally controlled (22°C) with a 12^- hr light/dark cycle (0600-1800 hr). Food and water were available ad libitum, except during testing. The experiments were run from 0700-1500 hr and groups were counterbalance for time of day effects. Mice were only administered drug or vehicle once.
The apparatus included two open arms perpendicular to two enclosed arms elevated 50 cm from the floor. Each arm was 50 cm long and the walls of the enclosed arms were 40 cm tall. The maze was made completely of black plexiglass. Incandescent 200 W light bulbs were above each of the open arms to produce a strong contrast between the open arms and the enclosed arms.
Ten minutes after an injection, the N.I.H. Swiss-Webster mice were placed in the center of the plus-maze facing an open arm. During the 5 min test period, the number of entries onto the open arms and the enclosed arms, and the time spent in the open arms and enclosed arms were measured. All four paws had to be within an arm for the dependent variable to be measured. Therefore, the time spent in the center of the maze is not counted, so the total time spent in the open arms and the enclosed arms may not equal 5 min.

The next assay addresses GR complex. Nature of the assay: [35S]TBPS binding assay (inhibition of [35S]TBPS binding, cerebral cortex P2 homogenate). Set-up: species or system rat. The conditions noted are these: for IC50: 2 nM [35S]TBPS, rat cerebral cortex P2 homogenate; for IMAX: maximum inhibition of [35S]TBPS binding. The method in brief: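 Rat (male Sprague-Dawley) cortical P2 homogenate (0.5 mg protein) in 50 mM Na/K phosphate pH 7.4, 200 mM NaCl, incubated with 2 nM [35S]TBPS plus steroid test compounds (DMSO) in presence of GABA plus (+)bicuculline, 25°C, 90 min. Filtration, scintillation counting; nonspecific binding defined with […].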

The subject of assay [3] is metrazol induced convulsions. Nature of the assay: animal or person. In kind it is in vivo, mice. As to conditions: for responders at 10 mg/kg: 10 min, 10 minutes prior to metrazol (85 mg/kg). How it is done: Experiments were also performed to determine the physiological relevance of neuroactive steroid and GABA receptor interactions by assessing the ability of the compounds of and used in the invention to prevent metrazol induced convulsions in mice. Mice were injected with various doses of the test compounds of the invention, 10 minutes prior to the injection of metrazol. The time to onset of myoclomis (presence of forelimb clonic activity) induced by metrazol was determined by observing each mouse for a period of 30 minutes. […] Table 6: Antimetrazol Activity of Neuroactive Steroids in Mice
The anticonvulsant tests are similar to that described above. […] The number of animals with tonic and/or clonic convulsions was recorded. In the maximal electroshock test, 50 mA of current at 60 Hz was delivered through corneal electrodes for 200 msec to induce tonic seizure. The ability of compounds to abolish the tonic component was defined as the endpoint. General CNS depression potential was determined by a rotorod test 10 minutes after the injection of compounds where the number of mice staying on a rotating (6 rpm) rod for 1 minute in one of the three trials was determined. […] Table 7. Anticonvulsant Activity of Exemplified Neuroactive Steroids and those of Selected Clinically Useful Anticonvulsants in Mice

[4] abbreviates: Mus musculus, IP, read-out: % Protected.

From patent publication EP1038880B1, “Androstanes and pregnanes for allosteric modulation of GABA receptor” (priority 1994, dated 1995) come the findings set out here.

In the case of `CCC(=O)[C@@]1(C)CC[C@H]2[C@@H]3CCC4=CC(=O)CCC4=C3CC[C@@]21C` [Example R5020, promegesterone], the “% of Inhibition” value in assay [1] came out at 100%.

As for `C[C@]12CC[C@](O)(C#CCCO)C[C@H]1CC[C@@H]1[C@@H]2CC[C@]2(C)[C@@H](C(=O)CSS(=O)(=O)O)CC[C@@H]12` [sodium S-[3α-hydroxy-3β-(4'-hydroxybutynyl)-5β-pregnan-20-on-21-yl] thiosulfate], the response vs control in vivo at 10 mg/kg in assay [2] worked out at 135%. At GR complex, the IC50 was 107 nM and the IMAX is 97%. The responders at 40 mg/kg in assay [3] (Mus musculus, PO, 40 mg/kg, water, read-out: % Protected) turned out to be 33.3%.

Regarding `C[C@]12CC[C@@H](O)C[C@H]1CC[C@@H]1[C@@H]2CC[C@]2(C)[C@@H](C(=O)CSS(=O)(=O)[O-])CC[C@@H]12.[Na+]` [sodium S-(3α-hydroxy-5β-pregnan-20-on-21-yl) thiosulfate], the response vs control in vivo at 10 mg/kg in assay [2] turned out to be 143%. Also, at GR complex, the half-inhibitory concentration (IC50) came to 268 nM and the IMAX was 88%. Moreover, in assay [3] (setting [4]), the responders at 10 mg/kg was 37.5%.

As for `C[C@]12CC[C@@H](O)C[C@H]1CC[C@@H]1[C@@H]2CC[C@]2(C)[C@@H](C(=O)Cn3nccn3)CC[C@@H]12` [3α-hydroxy-21-(2H-1,2,3-triazol-2-yl)-5β-pregnan-20-one], the response vs control in vivo at 10 mg/kg in assay [2] was 164%. On GR complex, this compound came in with a half-inhibitory concentration (IC50) of 56 nM and an IMAX of 79%. In assay [3] (setting [4]), the responders at 10 mg/kg came to 100%.

As for `C[C@@]1(O)CC[C@@]2(C)[C@@H](CC[C@@H]3[C@@H]2CC[C@]2(C)[C@@H](C(=O)Cn4ccnc4)CC[C@@H]32)C1` [3α-hydroxy-21-(1'-imidazolyl)-3β-methyl-5α-pregnan-20-one], the response vs control in vivo at 10 mg/kg in assay [2] came out at 144%. At GR complex, this compound showed an IC50 of 97 nM and an IMAX of 95%. The responders at 10 mg/kg in assay [3] (setting [4]) stood at 75%.

As for `CC(=O)[C@H]1CC[C@H]2[C@@H]3CC[C@@H]4C[C@@](O)(C#CCn5cccn5)CC[C@]4(C)[C@H]3CC[C@]12C` [3α-hydroxy-3β-[3-(1'H-pyrazol-1'-yl)-1-propynyl]-5β-pregnan-20-one], the response vs control in vivo at 10 mg/kg in assay [2] is 116%. On GR complex, this compound registered an IC50 of 81 nM and an IMAX of 98%. Moreover, in assay [3] (setting [4]), the responders at 10 mg/kg came out at 25%.

In the case of `CC(=O)c1ccc(C#CC2(O)CCC3(C)C(CCC4C3CCC3(C)C(C(=O)CO)CCC43)C2)cc1` (stereo not drawn) [3β-(4'-Acetylphenylethynyl)-3α-21-dihydroxy-5α-pregnan-20-one], in assay [2] (IP, 1 mg/kg, 50% hpbcd), the “% Control” value was found to be 150%. At GR complex, the concentration for half-maximal inhibition (IC50) was 4 nM and the IMAX amounted to 92%. In addition, in assay [3] (IP, 1 mg/kg, 50% hpbcd), the “% Protected” value was found to be 87.5%.

On to `C#CCOCC#C[C@@]1(O)CC[C@@]2(C)[C@H](CC[C@@H]3[C@@H]2CC[C@]2(C)[C@@H](C(C)=O)CC[C@@H]32)C1` [3α-hydroxy-3β-[3-(2'-propynyloxy)-1-propynyl]-5β-pregnan-20-one], for which, in assay [2], the response vs control in vivo at 10 mg/kg is 178%. On GR complex, this compound gave a half-maximal inhibitory concentration (IC50) of 28 nM and an IMAX of 105%. Also, in assay [3] (setting [4]), the responders at 10 mg/kg is 50%.

Consider `CC(=O)[C@H]1CC[C@H]2[C@@H]3CC[C@@H]4C[C@@](O)(C#Cc5cccs5)CC[C@]4(C)[C@H]3CC[C@]12C` [3α-hydroxy-3β-(2'-thienyl)ethynyl-5β-pregnan-20-one], for which, in assay [2], the response vs control in vivo at 10 mg/kg is 148%. At GR complex, this compound displayed a 50% inhibitory concentration (IC50) of 59 nM and an IMAX of 100%. Further, the responders at 10 mg/kg in assay [3] (setting [4]) was 37.5%.

As to `CC(=O)[C@H]1CC[C@H]2[C@@H]3CC[C@@H]4C[C@@](O)(C#Cc5ccc(C)cc5)CC[C@]4(C)[C@H]3CC[C@]12C` [3α-hydroxy-3β-(4'-methylphenylethynyl)-5β-pregnan-20-one], in assay [2], the response vs control in vivo at 10 mg/kg was determined as 148%. At GR complex, this compound gave a concentration for half-maximal inhibition (IC50) of 88 nM and an IMAX of 84%. In addition, in assay [3] (setting [4]), the responders at 10 mg/kg was found to be 75%.

Regarding `COc1ccccc1C#C[C@@]1(O)CC[C@@]2(C)[C@H](CC[C@@H]3[C@@H]2CC[C@]2(C)[C@@H](C(C)=O)CC[C@@H]32)C1` [3α-hydroxy-3β-(2'-methoxyphenyl)ethynyl-5β-pregnan-20-one], the response vs control in vivo at 10 mg/kg in assay [2] was determined as 152%. Also, at GR complex, the 50% inhibitory concentration (IC50) turned out to be 238 nM and the IMAX was 99%. Also, in assay [3] (setting [4]), the responders at 10 mg/kg is 12.5%.

Take `CC(=O)[C@H]1CC[C@H]2[C@@H]3CC[C@@H]4C[C@@](O)(C#CCCCO)CC[C@]4(C)[C@H]3CC[C@]12C` [3β-(5'-hydroxy-1'-pentynyl)-3α-hydroxy-5β-pregnan-20-one]: the response vs control in vivo at 10 mg/kg in assay [2] was determined as 137%. On GR complex, this compound gave an IC50 of 58 nM and an IMAX of 100%. For the same compound, the responders at 10 mg/kg in assay [3] (setting [4]) was determined as 12.5%.

As to `C#C[C@@]1(O)CC[C@@]2(C)[C@H](CC[C@@H]3[C@@H]2CC[C@]2(C)[C@@H](C(=O)Cn4cccn4)CC[C@@H]32)C1` [3β-ethynyl-3α-hydroxy-21-(1'-pyrazolyl)-5β-pregnan-20-one], the response vs control in vivo at 10 mg/kg in assay [2] was 180%. At GR complex, this compound registered an IC50 of 106 nM and an IMAX of 99%. Moreover, the responders at 10 mg/kg in assay [3] (setting [4]) is 62.5%.

Consider `CC(=O)[C@H]1CC[C@H]2[C@@H]3CC[C@@H]4C[C@@](O)(C#Cc5ccc(C#N)cc5)CC[C@]4(C)[C@H]3CC[C@]12C` [3β-(4'-Cyanophenyl)ethynyl-3α-hydroxy-5β-pregnan-20-one], for which the response vs control in vivo at 10 mg/kg in assay [2] was 169%. On GR complex, this compound had a half-maximal inhibitory concentration (IC50) of 73 nM and an IMAX of 92%. In addition, the responders at 10 mg/kg in assay [3] (setting [4]) came out at 43.7%.

As to `CC(=O)c1ccc(C#C[C@@]2(O)CC[C@@]3(C)[C@H](CC[C@@H]4[C@@H]3CC[C@]3(C)[C@@H](C(=O)CO)CC[C@@H]43)C2)cc1` [3β-(4'-acetylphenylethynyl)-3α,21-dihydroxy-5β-pregnan-20-one], in assay [2], the response vs control in vivo at 10 mg/kg was found to be 115%. On GR complex, the IC50 amounted to 22 nM and the IMAX turned out to be 99%. Moreover, the responders at 10 mg/kg in assay [3] (setting [4]) was 75%.

Take `C#C[C@@]1(O)CC[C@@]2(C)[C@H](CC[C@@H]3[C@@H]2CC[C@]2(C)[C@@H](C(=O)Cn4ccnc4)CC[C@@H]32)C1` [3β-ethynyl-3α-hydroxy-21-(1'-imidazolyl)-5β-pregnan-20-one]: in assay [2], the response vs control in vivo at 10 mg/kg was 179%. At GR complex, this compound returned a half-maximal inhibitory concentration (IC50) of 80 nM and an IMAX of 103%. The responders at 10 mg/kg in assay [3] (setting [4]) came out at 50%.

On to `C[C@@]1(O)CC[C@@]2(C)[C@@H](CC[C@@H]3[C@@H]2CC[C@]2(C)[C@@H](C(=O)CSS(=O)(=O)[O-])CC[C@@H]32)C1.[Na+]` [sodium S-(3α-hydroxy-3β-methyl-5α-pregnan-20-on-21-yl) thiosulfate], for which, in assay [2], the response vs control in vivo at 10 mg/kg was 125%. On GR complex, the concentration for half-maximal inhibition (IC50) worked out at 151 nM and the IMAX is listed as 101%. For the same compound, the responders at 10 mg/kg in assay [3] (setting [4]) came out at 62.5%.

Consider `C[C@]12CC[C@@H](O)C[C@H]1CC[C@@H]1[C@@H]2CC[C@]2(C)[C@@H](C(=O)Cn3cccn3)CC[C@@H]12` [3α-hydroxy-21-(pyrazol-1-yl)-5β-pregnan 20-one], for which, in assay [2], the response vs control in vivo at 10 mg/kg came to 129%. On GR complex, this compound had an IC50 of 121 nM and an IMAX of 67%. Also, the responders at 10 mg/kg in assay [3] (setting [4]) stood at 62.5%.
